One series concerns the target T1, TAAR1 (Homo sapiens, UniProt Q96RJ0).
T1 sequence (Q96RJ0 1-339): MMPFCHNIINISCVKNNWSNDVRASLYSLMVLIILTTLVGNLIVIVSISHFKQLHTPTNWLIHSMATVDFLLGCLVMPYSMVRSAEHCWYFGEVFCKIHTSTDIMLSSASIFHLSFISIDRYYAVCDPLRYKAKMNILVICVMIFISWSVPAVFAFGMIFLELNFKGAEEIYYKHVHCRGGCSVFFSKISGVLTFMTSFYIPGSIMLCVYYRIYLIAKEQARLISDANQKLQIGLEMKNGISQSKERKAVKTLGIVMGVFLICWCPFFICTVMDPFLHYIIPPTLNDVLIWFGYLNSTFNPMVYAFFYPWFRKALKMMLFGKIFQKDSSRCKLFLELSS
Nature of the series: BRET-based cellular cAMP (EPAC biosensor) assay of TAAR1 agonism in transfected HEK-293 cells. The conditions noted are these: for Emax: maximum observed activation of TAAR1 relative to that observed for 1 μM of β-PEA: relative to 1 μM β-PEA, mean from 3 BRET assays, errors ±5–10%; for Emax: HEK293, read-out: Emax: maximum observed activation of TAAR1 relative to that observed for 1 μM of β-PEA. On the technique in general: In BRET a luciferase serves as donor, and the signal depends on an acceptor being close.

Setting [1] is: TAAR1 activation, BRET assay, HEK-293, mean from 3 assays.

Read-outs that look alike come from different tables or passages of the source. Where only a bound is given, the exact number is not on record here.

Experimental for TAAR1: The Bioluminescence Resonance Energy Transfer approach (BRET) has been used for functional activity experiments. HEK-293 cells were transiently transfected with cDNA for TAARs and cAMP BRET biosensor (EPAC) and then plated in a 96-well plate, as described [23]. All compounds were tested at the initial concentration of 10 µM. […] A natural agonist of TAAR1 β-phenylethylamine (β-PEA) was used as a positive control.

As a reminder, the melting point is the temperature, or range, at which the solid turns liquid. The EC50 is the concentration giving half of the maximal effect. The low end stands for higher potency in that assay, the high end for lower potency in that assay. `Cl.NCCc1nnc(-c2cnccn2)[nH]1` [Compound 38, 2-(5-(Pyrazin-2-yl)-4H-1,2,4-triazol-3-yl)ethan-1-amine Hydrochloride]: the melting point was in the range of 184 to 186 °C. For the same molecule, on TAAR1 (setting [1]), the EC50 entry is “inactive”. Besides, on TAAR1, the “Emax: maximum observed activation of TAAR1 relative to that observed for 1 μM of β-PEA” value is “inactive”.
The molecule `Cl.NCCc1nnc(-c2ccccc2OC(F)(F)F)[nH]1` [Compound 39, 2-(5-(2-[Trifluoromethoxy]phenyl)-4H-1,2,4-triazol-3-yl)ethan-1-amine Hydrochloride] registered a melting point of 208 to 211 °C. Also, on TAAR1 (setting [1]), the EC50 entry is “inactive”. Further, on TAAR1, the “Emax: maximum observed activation of TAAR1 relative to that observed for 1 μM of β-PEA” value is “inactive”.
For orientation: Emax means the maximal effect, on the per cent scale that the assay sets. `CCCCOc1ccc(-c2nnc(CCN)[nH]2)cc1.Cl` [Compound 40, 2-(5-(4-Butoxyphenyl)-4H-1,2,4-triazol-3-yl)ethan-1-amine Hydrochloride] yielded a melting point of 205 to 207 °C. Besides, at TAAR1, the EC50 worked out at 34 nM and the Emax turned out to be 107%. Also, the EC50 result on TAAR1 (setting [1]) is given as “double-digit nanomolar range”.
Take `Cl.NCCc1nnc(-c2cccc(I)c2)[nH]1` [Compound 41, 2-(5-(3-Iodophenyl)-4H-1,2,4-triazol-3-yl)ethan-1-amine Hydrochloride]: the melting point was 224 to 225 °C. Further, on TAAR1, the EC50 turned out to be 890 nM and the Emax came out at 80%.
The corresponding values for `Cc1cc(-c2nnc(CCN)[nH]2)ccc1I.Cl` [Compound 42, 2-(5-(4-Iodo-3-methylphenyl)-4H-1,2,4-triazol-3-yl)ethan-1-amine Hydrochloride] are 225 to 227 °C, greater than 1000 nM and 76%.
In turn, `Cl.NCCc1nnc(-c2ccc(OCc3ccccc3F)cc2)[nH]1` [Compound 43, 2-(5-(4-[(2-Fluorobenzyl)oxy]phenyl)-4H-1,2,4-triazol-3-yl)ethan-1-amine Hydrochloride] displayed a melting point of 232 to 235 °C. In addition, on TAAR1, the midpoint of the response, the EC50, lay at 45 nM and the Emax is 114%.
The corresponding values for `Cl.NCCc1nnc(-c2ccc(OCc3cccc(F)c3)cc2)[nH]1` [Compound 44, 2-(5-(4-[(3-Fluorobenzyl)oxy]phenyl)-4H-1,2,4-triazol-3-yl)ethan-1-amine Hydrochloride] are 214 to 216 °C, 30 nM and 112%.
The corresponding values for `Cl.NCCc1nnc(-c2ccc(OCc3ccc(F)cc3)cc2)[nH]1` [Compound 45, 2-(5-(4-[(4-Fluorobenzyl)oxy]phenyl)-4H-1,2,4-triazol-3-yl)ethan-1-amine Hydrochloride] are 220 to 222 °C, 22 nM and 114%.
The corresponding values for `Cc1cc(-c2nnc(CCN)[nH]2)ccc1OCc1ccccc1F.Cl` [Compound 46, 2-(5-(4-[(2-Fluorobenzyl)oxy]-3-methylphenyl)-4H-1,2,4-triazol-3-yl)ethan-1-amine Hydrochloride] are 234 to 236 °C, 398 nM and 82%.
Molecule `Cc1cc(-c2nnc(CCN)[nH]2)ccc1OCc1cccc(F)c1.Cl` [Compound 47, 2-(5-(4-[(3-Fluorobenzyl)oxy]-3-methylphenyl)-4H-1,2,4-triazol-3-yl)ethan-1-amine Hydrochloride] showed a melting point of 215 to 216 °C. Also, on TAAR1, the EC50 stood at 142 nM and the maximal response (Emax) is 106%.
The corresponding values for `Cc1cc(-c2nnc(CCN)[nH]2)ccc1OCc1ccc(F)cc1.Cl` [Compound 48, 2-(5-(4-[(4-Fluorobenzyl)oxy]-3-methylphenyl)-4H-1,2,4-triazol-3-yl)ethan-1-amine Hydrochloride] are 182 to 183 °C, 163 nM and 98%.
For `Cc1ccc(Oc2ccc(-c3nnc(CCN)[nH]3)cc2)cc1C.Cl` [Compound 51, 2-(5-(4-[3,4-Dimethylphenoxy]phenyl)-4H-1,2,4-triazol-3-yl)ethan-1-amine Hydrochloride], the melting point was in the range of 201 to 203 °C. At TAAR1, it took 900 nM to reach a half-maximal effect (EC50) and the Emax came to 77%.
The corresponding values for `Cc1ccc(Oc2cccc(-c3nnc(CCN)[nH]3)c2)c(C)c1.Cl.Cl` [Compound 52, 2-(5-(3-[2,4-Dimethylphenoxy]phenyl)-4H-1,2,4-triazol-3-yl)ethan-1-amine Hydrochloride Hydrochloride] are 308 to 310 °C, greater than 1000 nM and 79%.
The corresponding values for `Cl.NCCc1nnc(-c2cccc(Oc3ccccc3Cl)c2)[nH]1` [Compound 53, 2-(5-(3-[2-Chlorophenoxy]phenyl)-4H-1,2,4-triazol-3-yl)ethan-1-amine Hydrochloride] are 202 to 210 °C, 847 nM and 71%.
The corresponding values for `Cc1ccc(Oc2ccc(-c3nnc(CCN)[nH]3)cc2)cc1.Cl` [Compound 54, 2-(5-(4-[4-Methylphenoxy]phenyl)-4H-1,2,4-triazol-3-yl)ethan-1-amine Hydrochloride] are 234 to 236 °C, 150 nM and 94%.
Molecule `Cl.NCCc1nnc(-c2cccc(O)c2)[nH]1` [Compound 55, 3-(5-(2-Aminoethyl)-4H-1,2,4-triazol-3-yl)phenol Hydrochloride] came in with a melting point of 234 to 235 °C. On TAAR1, the EC50 is greater than 1000 nM and the Emax is 88%.
The corresponding values for `Cl.NCCc1nnc(-c2ccc(OCc3ccccc3F)c(I)c2)[nH]1` [Compound 56, 2-(5-(4-[(2-Fluorobenzyl)oxy]-3-iodophenyl)-4H-1,2,4-triazol-3-yl)ethan-1-amine Hydrochloride] are 208 to 209 °C, 316 nM and 87%.
`Cc1cc(-c2nnc(CCN)[nH]2)ccc1O.Cl` [Compound 57, 4-(5-(2-Aminoethyl)-4H-1,2,4-triazol-3-yl)-2-methylphenol Hydrochloride] showed a melting point of 158 to 160 °C. Moreover, on TAAR1, the EC50 was greater than 1000 nM and the Emax was determined as 90%.
The corresponding values for `COc1ccc(-c2ccc(-c3nnc(CCN)[nH]3)cc2)cc1.Cl` [Compound 58, 2-(5-(4′-Methoxy-(1,1′-biphenyl)-4-yl)-4H-1,2,4-triazol-3-yl)ethan-1-amine Hydrochloride] are 300 to 301 °C, 6 nM and 97%.
The corresponding values for `Cl.NCCc1nnc(-c2ccc(-c3ccc(OC(F)(F)F)cc3)cc2)[nH]1` [Compound 59, 2-(5-(4′-Trifluoromethoxy-(1,1′-biphenyl)-4-yl)-4H-1,2,4-triazol-3-yl)ethan-1-amine Hydrochloride] are 299 to 300 °C, 13 nM and 95%.
The corresponding values for `Cl.NCCc1nnc(-c2ccc(-c3cccc(F)c3)cc2)[nH]1` [Compound 60, 2-(5-(3′-Fluoro-(1,1′-biphenyl)-4-yl)-4H-1,2,4-triazol-3-yl)ethan-1-amine Hydrochloride] are 260 to 262 °C, 26 nM and 95%.
Regarding `Cl.NCCc1nnc(-c2ccc(-c3ccc(F)cc3F)cc2)[nH]1` [Compound 61, 2-(5-(2′,4′-Difluoro-(1,1′-biphenyl)-4-yl)-4H-1,2,4-triazol-3-yl)ethan-1-amine Hydrochloride], the melting point was 251 to 253 °C. Moreover, at TAAR1, the EC50 came to 18 nM and the Emax was found to be 93%.
The corresponding values for `Cl.NCCc1nnc(-c2ccc(-c3cccc(C(F)(F)F)c3)cc2)[nH]1` [Compound 63, 2-(5-(3′-Trifluoromethyl-(1,1′-biphenyl)-4-yl)-4H-1,2,4-triazol-3-yl)ethan-1-amine Hydrochloride] are 210 to 212 °C, 250 nM and 76%.
On to `COc1ccc(-c2ccc(-c3nnc(CCN)[nH]3)cc2)cc1OC.Cl` [Compound 64, 2-(5-(3′,4′-Dimethoxy-(1,1′-biphenyl)-4-yl)-4H-1,2,4-triazol-3-yl)ethan-1-amine Hydrochloride], for which the melting point lay in the range of 199 to 201 °C. In addition, on TAAR1, the concentration for a half-maximal effect (EC50) was found to be 185 nM and the Emax was 104%.
The corresponding values for `Cl.NCCc1nnc(-c2ccc(-c3cc(F)cc(F)c3)cc2)[nH]1` [Compound 65, 2-(5-(3′,5′-Difluoro-(1,1′-biphenyl)-4-yl)-4H-1,2,4-triazol-3-yl)ethan-1-amine Hydrochloride] are 260 to 262 °C, 13 nM and 105%.
The molecule `Cl.NCCc1nnc(-c2cccc(-c3ccc(OC(F)(F)F)cc3)c2)[nH]1` [Compound 67, 2-(5-(4′-(Trifluoromethoxy)-(1,1′-biphenyl)-3-yl)-4H-1,2,4-triazol-3-yl)ethan-1-amine Hydrochloride] displayed a melting point of 253 to 257 °C. On TAAR1, the EC50 was found to be 96 nM and the Emax was found to be 94%.

These data come from PMC9687812, “Discovery of Trace Amine-Associated Receptor 1 (TAAR1) Agonist 2-(5-(4′-Chloro-[1,1′-biphenyl]-4-yl)-4H-1,2,4-triazol-3-yl)ethan-1-amine (LK00764) for the Treatment of Psychotic Disorders” (Biomolecules, 2022).
